Results as given in paper PMC4724696 (Acta Pharmaceutica Sinica. B, 2016).

Experiments:
Format in all cases: cell-based
BxPC3 = assay: Cell proliferation assay; details: Homo sapiens, BXPC-3, 72 h, read-out: IC50 in cancer cell lines
[1] = tested on: acetylation of histones H3, H4 and tubulin in HCT-116 colorectal cancer cells; assay: Western Blot analysis of Ac-H3, Ac-H4 and Ac-tubulin; details: HCT-116 cells, various concentrations, 24 h
SK-OV-3 = assay: Cell proliferation assay; details: Homo sapiens, SK-OV-3, 72 h, read-out: IC50 in cancer cell lines
A375 = assay: Cell proliferation assay; details: Homo sapiens, A-375, 72 h, read-out: IC50 in cancer cell lines

IC50 (BxPC3): 2240 ± 610 nM | IC50 (SK-OV-3): 3570 ± 740 nM | IC50 (A375): 1860 ± 420 nM
SMILES: O=C(CCCCCCC(=O)Nc1ccccc1)NO [SAHA, Vorinostat]
acetylation of histones H3, H4 and tubulin [1]: Increased acetylated histones and tubulin levels
